Test results: the METLIN SMRT retention time set (Domingo-Almenara et al. 2019)

Experiment: gradient 5% acetonitrile 3 min, to 50% in 2 min, to 85% in 15 min, held 3 min, 100 µL/min
Details: column: Zorbax Extend-C18 2.1 x 50 mm; eluents: water / acetonitrile, 0.1% formic acid
Summary of the method: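 Retention time was recorded from adduct peaks, which were picked computationally and each inspected manually. Pure standards ran in mixtures of ~100 molecules on HPLC coupled to a quadrupole time-of-flight mass spectrometer, in positive and negative ionization mode, through a Zorbax Extend-C18 column (2.1 × 50 mm, 1.8 μm) at 100 μL/min. Eluents were water and acetonitrile, each with 0.1% formic acid.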

Row | RP-LC retention time [s] | Compound
1 | 921 | COc1cccc(NC(=O)Cn2c(C)cc(-c3nnc(-c4ccccc4)o3)c2C)c1
2 | 614 | CC(NC(=O)c1ccco1)c1nc2ccccc2n1CC(=O)N1CCCC1 (centres undefined)
3 | 1000 | CC(C)(Oc1ccc(Cl)cc1)C(=O)NCCS(=O)(=O)N1CCc2ccccc2C1
4 | 879 | CCCN1C(=O)C2CCC(=O)N2c2ccc(C(=O)Nc3cccc(SC)c3)cc21 (centres undefined)
5 | 890 | CCN(CC)C(=O)Cn1cc(C(=O)C(=O)N(C)Cc2ccccc2)c2ccccc21
6 | 1120 | Cc1ccc(-c2csc(NC(=O)c3nc4ccccc4s3)n2)o1
7 | 589 | CC(C)CNC(=O)C1(CCO)CCN(Cc2ccccc2)C1 (centres undefined)
8 | 864 | Cc1cccc(-n2c(=O)c3c(cc(C)n3C)n(CC(=O)N(C)c3ccccc3)c2=O)c1
9 | 919 | CCCCS(=O)(=O)c1cc2c(cc1NC(=O)Cc1ccc(Cl)cc1)n(C)c(=O)n2C
10 | 783 | O=C(NCc1cccs1)C1CCN(Cc2cc3ccccc3n2Cc2ccc(F)cc2)CC1
11 | 710 | CS(=O)(=O)c1ccc(CC(=O)Nc2cccc3ccccc23)cc1
12 | 651 | CCNC(=O)c1ccc2c(c1)CCN2C(=O)CC
13 | 812 | CCOC(=O)c1[nH]c(C)c(CCC(=O)N2CCC(C(=O)NCCc3ccccc3OC)CC2)c1C
14 | 1080 | CC(C)c1cc(C(=O)Nc2ccccc2)nc2ccnn12
15 | 862 | COc1ccccc1CNC(=O)c1ccc2c(c1)N(C)C(=O)c1ccccc1O2
16 | 826 | COC(=O)c1ccc(-c2nc3cnccn3c2Nc2ccc(OC)cc2)cc1
17 | 607 | CCCN1CCN(c2cc(C(=O)O)c3cc(NS(=O)(=O)c4cccc(C)c4)ccc3n2)CC1
18 | 994 | Cc1ccc(-c2nc(C3CC(=O)N(c4ccc(Cl)cc4)C3)no2)c(C)c1 (centres undefined)
19 | 932 | O=c1c(NCc2ccccc2Cl)nccn1-c1ccc2c(c1)OCO2
20 | 734 | O=C(NC1CCCC1)c1ccc(CN2CCN(Cc3ccccc3)C(=O)C2=O)cc1
21 | 742 | CCN1c2cc(F)ccc2C(=O)NC12CCN(C(=O)c1ccccc1)CC2
22 | 938 | O=c1ccn(-c2ccc(Cl)cc2)nc1-c1nc(-c2ccccc2)no1
23 | 730 | CCCC(NC(=O)Cc1ccc(OC)cc1Cl)C(=O)Nc1nc2ccccc2[nH]1 (centres undefined)
24 | 824 | COc1ccc(NC(=O)C2CCN(S(C)(=O)=O)c3ccccc3O2)cc1 (centres undefined)
25 | 924 | CC(C)c1nc(-n2cccc2)sc1C(=O)NCCc1ccc(S(N)(=O)=O)cc1
26 | 641 | COc1cccc(CNC(=O)C2CCN(C(=O)c3n[nH]c4ccccc34)CC2)c1
27 | 732 | COc1ccc(CCNC(=O)Cn2c(=O)n(CC3CCCO3)c(=O)c3ccccc32)cc1OC (centres undefined)

Row | RP-LC retention time [s] | Compound
28 | 548 | O=C(c1ccc(N2C(=O)CCS2(=O)=O)cc1)N1CCN(c2ccccn2)CC1
29 | 856 | O=C(C1CC1)N1CCc2sc(S(=O)(=O)NCc3ccc(Cl)cc3)cc2C1
30 | 719 | CN(C)C(=O)c1cccc2c1CCN2C(=O)c1ccc(F)cc1
31 | 704 | CCNC(=O)C1CCCN(c2nc3ncn(CC(=O)Nc4ccc(Cl)cc4)c(=O)c3s2)C1 (centres undefined)
32 | 701 | CC(C)n1cnc(S(=O)(=O)N2CCC(C(=O)NCc3cccs3)CC2)c1
33 | 873 | Cn1c(=O)n(C)c2cc(S(=O)(=O)c3ccc(F)cc3)c(NC(=O)Cc3cccc(F)c3)cc21
34 | 1040 | O=C1CC(c2noc(-c3ccccc3)n2)CN1c1ccc(Cl)cc1 (centres undefined)
35 | 1030 | CCOCCCNC(=O)c1ccc(Oc2nccnc2N2CCC(C)CC2)cc1
36 | 1040 | CCOc1ccc(N2C(=O)C3N=NN(Cc4nc(-c5ccccc5C)no4)C3C2=O)cc1 (centres undefined)
37 | 685 | Cc1ccc(F)cc1S(=O)(=O)N1CCC2(CCN(c3cccnc3)C2)C1 (centres undefined)
38 | 1080 | CC1CCN(c2nccnc2Oc2ccc(C(=O)Nc3ccc4c(c3)OCCO4)cc2)CC1
39 | 835 | Cc1ccc(NC(=O)C2CCN(S(=O)(=O)c3cc(C(=O)N(C)C)cs3)CC2)cc1C
40 | 890 | CC(=O)N1c2ccc(S(=O)(=O)N3CCCCCC3)cc2CC1C(=O)NCc1ccc(F)cc1 (centres undefined)
41 | 732 | Cc1ccc(S(=O)(=O)Nc2ccc(Cn3cncn3)cc2)cc1F
42 | 859 | O=C(NCCc1csc(-c2ccccc2)n1)C1CCN(C(=O)CCc2ccccc2)CC1
43 | 887 | CCC(C)NC(=O)C1(c2ccc(NS(=O)(=O)CC)cc2)CCCCC1 (centres undefined)
44 | 1110 | Cc1ccc(S(=O)(=O)N2CCCCC2)cc1-c1nnc(-c2ccc(F)cc2)o1
45 | 862 | O=C(Cc1ccccc1Br)NCC(=O)N1CCCc2ccccc21
46 | 1040 | CCc1noc(C2(NC(=O)COc3ccc(Cl)cc3)CCCCC2)n1
47 | 955 | Cc1ccc(N2CCC(NC(=O)Nc3cccc(Br)c3)C2=O)cc1 (centres undefined)
48 | 941 | COc1ccc(-c2noc(C3CCCN3C(=O)Nc3cc(OC)cc(OC)c3)n2)cc1 (centres undefined)
49 | 761 | CN1C(=O)c2cc(C(=O)NCCc3ccccc3)nn2CC1(C)C(=O)NC1CCCC1 (centres undefined)
50 | 633 | O=C(Cn1c(=O)c(=O)n(Cc2ccncc2)c2ncccc21)NCCc1ccc(Cl)cc1
51 | 664 | O=C(Cn1c(=O)c2cccn2c2ccc(F)cc21)NCCCN1CCc2ccccc2C1
52 | 736 | CN(C)c1cccc(C(=O)Nc2ccc(-c3nnc4n3CCCC4)cc2)c1
53 | 1110 | COc1cccc(-c2nc(C3CCN(S(=O)(=O)c4ccccc4F)CC3)no2)c1

The remaining lines, values behind:

Row | Compound | RP-LC retention time [s]
54 | Cc1cccc(NC(=O)Nc2ccc(-c3cccc4[nH]nc(N)c34)cc2)c1 | 789
55 | Cn1c(=O)oc2cc(-c3noc(-c4cccc(F)c4)n3)ccc21 | 1020
56 | Cc1ccc(-c2nc(-c3ccnc(N4CCCC4)c3)no2)s1 | 733
57 | COC(=O)c1sccc1NC(=O)N1CCCn2nc(-c3ccncc3)cc2C1 | 647
58 | O=C(CCc1nc(-c2ccc(N3CCCC3)cc2)no1)N1CCC2(CC1)OCCO2 | 945
59 | CC(C)c1cc(=O)n(CC(=O)Nc2cccc(-c3cn4c(n3)SCC4)c2)cn1 | 568
60 | COc1ccc2c(=O)oc3c(OC)cc(CCN(C)C)c4c(=O)oc1c2c34 | 689
61 | Cc1oc(C2CCN(C(=O)Nc3cccc(Cl)c3C)CC2)nc1C(=O)N(C)C | 728
62 | Cc1cc2c3ccccc3ncn2n1 | 855
63 | CC1(C(=O)NCc2ccc(F)cc2)Cn2cnc(C(=O)NC3CC3)c2C(=O)N1C1CC1 (centres undefined) | 670
64 | COc1ccccc1N1CCN(Cc2nc(-c3ccc(N4CCCC(C)C4)nc3)no2)CC1 (centres undefined) | 848
65 | Cc1nccn1Cc1noc(-c2cccc(F)c2)n1 | 611
66 | Cc1ccc(-c2noc(Cc3nnc(-c4cccc(Cl)c4)o3)n2)cc1C | 1210
67 | CN1C(=O)C2CCCCN2c2ccc(C(=O)N3CCC4(CC3)OCCO4)cc21 (centres undefined) | 750
68 | Cc1ccc(C)c(NS(=O)(=O)c2cc(-c3[nH]ncc3C(=O)N3CCCCC3)oc2C)c1 | 799
69 | COc1ccccc1OCC(O)Cn1c(C2CC(=O)N(c3ccccc3)C2)nc2ccccc21 (centres undefined) | 736
70 | CCn1c(=O)oc2cc(-c3noc(-c4ccc(C)cc4)n3)ccc21 | 1060
71 | COc1ccccc1-c1nc(Cn2nnc(-c3nc(-c4cccc(F)c4)no3)c2C)c(C)o1 | 1130

Row | Compound | RP-LC retention time [s]
72 | CSc1cccc(NC(=O)C2CCN(c3cnc4nccnc4c3)CC2)c1 | 752
73 | O=C(O)C(c1ccccc1)n1cnnn1 (centres undefined) | 585
74 | CS(=O)(=O)N1CCC(C(=O)Nc2sccc2C#N)CC1 | 662
75 | Cc1nc(-n2cccc2)sc1C(=O)N1CCN(C(=O)c2ccco2)CC1 | 713
76 | Cc1cc(C)c(NC(=O)COc2cc(C(F)(F)F)c3c(C)nn(C)c3n2)c(C)c1 | 1060
77 | CCn1nc(C(=O)Nc2cccc3c2C(=O)N(C)C3=O)cc1C | 856
78 | O=C(CSc1ncnc2c1oc1ccccc12)Nc1nc2ccccc2s1 | 902
79 | COc1cc(Cl)c(C)cc1N1C=C(C#N)S(=O)(=O)c2ccc(F)cc21 | 972
80 | CCN1C(=O)COc2ccc(-c3noc(Cc4cccc(OC)c4)n3)cc21 | 1000
81 | COc1cc(NC(=O)NCC(c2cccnc2)c2cn(C)c3ccccc23)cc(OC)c1OC (centres undefined) | 661
82 | CC(C)c1csc(-c2csc(S(=O)(=O)NC3CCCCC3)c2)n1 | 1180
83 | Fc1ccc(-c2noc(-c3ccc(N4CCCC4)nc3)n2)cc1 | 1040
84 | Brc1ccc(Nc2c(-c3ccc4c(c3)OCO4)nc3cnccn23)cc1 | 921
85 | CN(C)c1ncncc1N1CCC(C(=O)NC2CCCCCC2)CC1 | 624
86 | Cc1ccc(Nc2c(-c3ccccc3)nc3ccccn23)cc1 | 694
87 | Cc1ccc2nc3c(c(C(=O)NC(C)C)c2c1)CCC3 | 610
88 | Cc1nc(-c2cccc(F)c2)sc1C(=O)NC(C)C | 936
89 | COc1ccc2c(C)c(CC(=O)N3CCC(C(N)=O)CC3)c(=O)oc2c1OC | 622
